Source: patent publication US5128242A, “Hypothalamic polypeptides with adenylate cyclase stimulating activity” (The Administrators of the Tulane Educational Fund, priority 1989, dated 1992)
“Also recorded” adds a separate entry of the source. Ends that are not written are not given here.

Columns and labels:
[1] = tested on: rat pituitary cell cultures; experiment: Intracellular cAMP accumulation in cultured pituitary cells; format: cell-based; details: temporal changes, concentration not given
Text: FIG. 6a. Intracellular cAMP accumulation in cultured pituitary cells.
We also determined temporal changes in intracellular cAMP levels in rat pituitary cell cultures.

astrocytes = experiment: Intracellular cAMP accumulation in cultured astrocytes; format: cell-based, rat; details: for intracellular cAMP response in astrocytes: 10^-9 M added to culture medium
Procedure: FIG. 6b. Intracellular cAMP accumulation in cultured astrocytes.
(§1) For studies on neurons, rat neuronal cell cultures were prepared by the method described by Raizada et al. (Raizada et al. Am. J. Physiol. 247:C364, 1984). Astrocyte cultures were prepared using the single-step transfer method as described by Clarke et al. (Clark et al., J. Biol. Chem. 259:11672, 1984). […] Intracellular cAMP levels remained elevated for at least 60 minutes in astrocytes, but began to decrease after 10 min in neurons.

neurons [2] = experiment: Intracellular cAMP accumulation in cultured neurons; format: cell-based, rat; details: for intracellular cAMP response in neurons: 10^-9 M added to culture medium
Procedure: FIG. 6c. Intracellular cAMP accumulation in cultured neurons.
as §1

arterial blood pressure = experiment: Determination of depressor activity (arterial blood pressure) in urethane-anesthetized rats; format: in vivo, rat; details: for vasodepressor activity: urethane-anaesthetized rats, dose range 0.33 nmole to 1.0 nmole
Procedure: Arterial blood pressure was measured in urethane (150 mg/100 g ip) anesthetized adult male rats. Polyethylene tubing (PE50) which was connected with a pressure transducer P-1000 B (Narco Bio-Systems) was inserted into the femoral artery. Blood pressure was recorded using Narcotrace 40. Another polyethylene tube (PE50) was inserted into a femoral vein for injection of test materials dissolved in 0.5 ml 0.9% saline.

neurons [3] = details: De Brenneman et al. 1987, 1988; cited from earlier work
rat pituitary fragments = details: in vitro; Arimura et al. 1984; cited from earlier work
adenylate cyclase = details: rat pituitary cell cultures
Procedure: Primary monolayer rat anterior pituitary cell culture was prepared as described previously (Culler et al., 1984). Anterior pituitaries from CD strain female rats of approximately 200 g bw (Charles River Breeding Labs, Wilmington, Mass.) at a random stage of estrous cycle were enzymatically dispersed with collagenase Type II and DNAse II. Dispersed cells were collected by centrifugation and washed three times with HEPES buffer and finally suspended in Dulbecco,s modified Eagle's medium (DMEM) containing 10% horse serum, 2.5% fetal calf serum and 1% antibiotic antimycotic solution (Gibco/Life Technologies, Grand Isle, NY) The cells are plated in 24-multiwell tissue culture plates (Falcon, Oxnard, Calif.) at a density of 1.5×10^5 cells/ml/well, and then incubated at 37° C. in a water-saturated atmosphere of 95% air 5% CO2 for 4 days. Prior to acute stimulation, cultured cells were incubated for 3 hr in serum-free DMEM with two changes of the medium. The cells were then incubated for 3 hr in 0.5 ml of HEPES-buffered DMEM containing test materials. Ascorbic acid (2.5×10^-4 M) and 0.25% BSA were routinely added to the medium during assay incubation in order to prevent possible oxidation and adsorption of test samples. […]
Cyclic AMP in the culture media was determined by RIA as described by Harper and Brooker (J. Cyclic Nucleo. Res. 1:207, 1975). […]

[4] = tested on: superfused pituitary cells; experiment: Superfusion method using rat pituitary cell column: release of pituitary hormones; format: cell-based
Procedure: FIGS. 5A-5D. The effect of synthetic PACAP38 on the release of pituitary hormones from superfused pituitary cells. A pituitary cell superfusion method to determine the hypophysiotropic activity of samples was conducted as reported by Vigh and Schally. The peptide was applied as a 3 min pulse. The numbers at top indicate; 1,7: 100 mM KCl, 2: 10^-10 M PACAP38, 3: 10^-9 M PACAP38, 4: 10^-8 M PACAP38, 5: 10^-7 M PACAP38, 6: 10^-6 M PACAP38. 0.9 ml fractions were collected every 3 min.
A pituitary cell superfusion method to determine the hypophysiotropic activity of samples was conducted as reported by Vigh and Schally (1984). Pituitaries obtained from 3 adult female rats were cut into small pieces and incubated in a Dubnoff incubator for 45 min at 37° C. in 10 ml of oxygenated Medium 199 (Gibco/Life Technologies) containing 0.5% collagenase (Sigma Type I), 0.25% BSA and […] gentamicin sulphate (Sigma). After this incubation, there were no apparent changes in the pituitary tissue, but the fragments could be easily dispersed into single cells by repeated suction and expulsion from a Pasteur pipet. After 30 to 60 pipet operations, the tissue fell apart. The cell suspension was centrifuged at room temperature for 10 min at 100×g. The cell pellet was then resuspended in 1.0 ml medium. A small aliquot was diluted to count the cells, and the remainder of the suspension was divided into 2 equal volumes. Each volume (containing about 5×10^6 cells and usually between 3.5 and 7.0×10^6) was mixed with 0.5 ml Sephadex G-15 which had been equilibrated with previously oxygenated medium. The mixture of pituitary cells and Sephadex was transferred into 2 chambers of the superfusion apparatus and perfused with the medium. The medium was always freshly prepared in a way similar to that for enzymatic dispersion, omitting the collagenase, then passed through a Millipore filter, and continuously gassed with a mixture of O2 (95%) and CO2 (5%) during the experiment. The flow rate of the medium through the superfusion system was controlled by a multichannel pump (Gilson Minipulse Type HP-8) which was placed behind the superfusion chamber; the tuning of the lower plunger was connected to the pump, and from there to a two-channel fraction collector. Thus, the system was operated with negative pressure in order to get fewer fluctuations in the flow rate. Samples were applied as a 3 min pulse followed by the medium superfusion. Superfusate was collected as 3 min fractions, 0.9 ml per fraction.

[5] = superfused rat pituitary cells, hormone release

growth hormone releasing hormone (YADAIFTNSYRKVLGQLSARKLLQDIMSRQQGESNQERGARARL; ends and bridges not checked; UniProt P01286 32-75, looked up) [GRH]
intracellular cAMP accumulation (extent and pattern) [1]: greatest accumulation of intracellular cAMP

vasoactive intestinal peptide [VIP, reference compound]
intracellular cAMP accumulation (extent and pattern) [1]: little effect | intracellular cAMP response in astrocytes (astrocytes): did not induce an appreciable stimulation of cAMP | intracellular cAMP response in neurons (neurons [2]): did not induce an appreciable stimulation of cAMP | vasodepressor activity (arterial blood pressure): comparable vasodepressor activity | protection of neurons from gp120-induced cell death (neurons [3]): capable of protecting neurons from cell death

HP: ovine hypothalamic peptide, partial N-terminal sequence His-Ser-Asp-Gly-Ile-Phe-Thr-Asp-Ser-Tyr-Lys-Arg-Tyr-Asn-Lys-Glu-Met-Ala-Lys- (HSDGIFTDSYKRYNKEMAK; printed: His-Ser-Asp-Gly-Ile-Phe-Thr-Asp-Ser-Tyr-Lys-Arg-Tyr-Asn-Lys-Glu-Met-Ala-Lys-)
GH release from rat pituitary fragments (rat pituitary fragments): stimulated GH release

CRH: known hypothalamic releasing hormone (corticotropic releasing hormone) used for comparison (SEEPPISLDLTFHLLREVLEMARAEQLAQQAHSNRKLMEII; ends and bridges not checked; UniProt P06850 154-194, looked up)
intracellular cAMP accumulation (extent and pattern) [1]: comparable extent and pattern of cAMP accumulation

CC[C@H](C)[C@H](NC(=O)CNC(=O)[C@H](CC(=O)O)NC(=O)[C@H](CO)NC(=O)[C@@H](N)Cc1c[nH]cn1)C(=O)N[C@@H](Cc1ccccc1)C(=O)N[C@H](C(=O)N[C@@H](CC(=O)O)C(=O)N[C@@H](CO)C(=O)N[C@@H](Cc1ccc(O)cc1)C(=O)N[C@@H](CO)C(=O)N[C@@H](CCCNC(=N)N)C(=O)N[C@@H](Cc1ccc(O)cc1)C(=O)N[C@@H](CCCNC(=N)N)C(=O)N[C@@H](CCCCN)C(=O)N[C@@H](CCC(N)=O)C(=O)N[C@@H](CCSC)C(=O)N[C@@H](C)C(=O)N[C@H](C(=O)N[C@@H](CCCCN)C(=O)N[C@@H](CCCCN)C(=O)N[C@@H](Cc1ccc(O)cc1)C(=O)N[C@@H](CC(C)C)C(=O)N[C@@H](C)C(=O)N[C@@H](C)C(=O)N[C@H](C(=O)N[C@@H](CC(C)C)C(=O)NCC(=O)N[C@@H](CCCCN)C(=O)N[C@@H](CCCNC(=N)N)C(=O)N[C@@H](Cc1ccc(O)cc1)C(=O)N[C@@H](CCCCN)C(=O)N[C@@H](CCC(N)=O)C(=O)N[C@@H](CCCNC(=N)N)C(=O)N[C@H](C(=O)N[C@@H](CCCCN)C(=O)N[C@@H](CC(N)=O)C(=O)N[C@@H](CCCCN)C(N)=O)C(C)C)C(C)C)C(C)C)[C@@H](C)O [PACAP38]
adenylate cyclase stimulating activity relative to VIP (adenylate cyclase; fold of VIP): at least 100 times | intracellular cAMP accumulation (extent and pattern) [1]: comparable extent and pattern of cAMP accumulation | time intracellular cAMP levels remained elevated, astrocytes (astrocytes; 10^-9 M): at least 60 minutes | time of first cAMP increase after addition, astrocytes (astrocytes; 10^-9 M): as early as one minute | intracellular cAMP response in astrocytes (astrocytes): extraordinarily large | time after which intracellular cAMP began to decrease, neurons (neurons [2]; 10^-9 M): 10 min | time of first cAMP increase after addition, neurons (neurons [2]; 10^-9 M): as early as one minute | intracellular cAMP response in neurons (neurons [2]): increased intracellular cAMP | FSH release ([4]; 3 min pulse, 10^-10 to 10^-6 M): not altered; also recorded: not apparent | LH release ([4]; 3 min pulse, 10^-10 to 10^-6 M): LH response was linear | TSH release ([4]; 3 min pulse, 10^-10 to 10^-6 M): not altered; also recorded: not apparent | dose of maximum effect (bell-shaped dose response curve) [4, 5]: 10^-8 M | minimum effective dose [4, 5]: 10^-10 M | depressor activity (arterial blood pressure; anesthetized rats, injection into femoral vein): significant, but somewhat weaker | vasodepressor activity (arterial blood pressure): comparable vasodepressor activity

CC[C@H](C)[C@H](NC(=O)CNC(=O)[C@H](CC(=O)O)NC(=O)[C@H](CO)NC(=O)[C@@H](N)Cc1c[nH]cn1)C(=O)N[C@@H](Cc1ccccc1)C(=O)N[C@H](C(=O)N[C@@H](CC(=O)O)C(=O)N[C@@H](CO)C(=O)N[C@@H](Cc1ccc(O)cc1)C(=O)N[C@@H](CO)C(=O)N[C@@H](CCCNC(=N)N)C(=O)N[C@@H](Cc1ccc(O)cc1)C(=O)N[C@@H](CCCNC(=N)N)C(=O)N[C@@H](CCCCN)C(=O)N[C@@H](CCC(N)=O)C(=O)N[C@@H](CCSC)C(=O)N[C@@H](C)C(=O)N[C@H](C(=O)N[C@@H](CCCCN)C(=O)N[C@@H](CCCCN)C(=O)N[C@@H](Cc1ccc(O)cc1)C(=O)N[C@@H](CC(C)C)C(=O)N[C@@H](C)C(=O)N[C@@H](C)C(=O)N[C@H](C(=O)N[C@@H](CC(C)C)C(N)=O)C(C)C)C(C)C)[C@@H](C)O [PACAP27NH2]
ACSA activity compared with native PACAP38 (adenylate cyclase; cAMP in medium after 3 hr incubation): similar, if not greater | intracellular cAMP accumulation (extent and pattern) [1]: comparable extent and pattern of cAMP accumulation
